Literature values in patent US20220056157A1, “PROCESS FOR FRACTIONATING AN ESTERIFIED CELLULOSE ETHER” (DOW GLOBAL TECHNOLOGIES LLC, priority 2015, published 2022).
Values after ≈ are worked out from the molar mass of the structure shown.

- water solubility: 0.13 ng/mL (≈ 0.216 nM)
Compound: CCOC(=O)N1c2ccc(C(F)(F)F)cc2[C@@H](N(Cc2cc(C(F)(F)F)cc(C(F)(F)F)c2)C(=O)OC)C[C@H]1CC [Torcetrapib]
